The values below come from PMC3930709, “Selective Activation of hTRPV1 by N-Geranyl Cyclopropylcarboxamide, an Amiloride-Insensitive Salt Taste Enhancer” (PLoS ONE, 2014).

The structures appear in SMILES notation. pEC50: −log10 of the molar value.

Test [1] concerns non-hTRPA1-expressing Flp-In 293 cells. The experiment in a line: Ca2+ imaging of non-hTRPA1-expressing Flp-In 293 cells (control). It is filed as cell-based, human. Particulars: comparison with hTRPA1-expressing cells. On the procedure: Flp-In 293 cell lines stably expressing hTRPA1constructed as previously reported was a gift from the professor […] at University of Tokyo. The hTRPA1-expressing cells were cultured in DMEM containing 10% FBS and 0.02% hygromycin B (Invitrogen). Flp-In 293 cell lines were maintained in DMEM containing 10% FBS. All cells were incubated at 37°C in a humidified atmosphere of 5% CO2. […] Mock-transfected HEK293T cells, hTRPV1-expressing HEK293T cells, non-hTRPA1-expressing Flp-In 293 cells, and hTRPA1-expressing Flp-In 293 cells grown in 96-well black-wall plates were rinsed with assay buffer (130 mM NaCl, 10 mM glucose, 5 mM KCl, 2 […]2, 1.2 mM MgCl2, and 10 mM HEPES, pH 7.4) and loaded with 5 μM Fura-2 AM (Invitrogen) for 30 min at 27°C. The cells were washed with assay buffer and treated with ligands. […] The fluorescence intensities of Fura-2 excited at 340 and 380 nm were simultaneously measured at 510 nm using a computer-controlled filter changer (Lambda DG4; Sutter, San Rafael, CA, USA), an Andor Luca CCD camera (Andor Technology, Belfast, UK), and an inverted fluorescence microscope (IX-71; Olympus, Tokyo, Japan). Intracellular calcium images were recorded every 3-s for 60-s and analyzed using MetaFluor software (Molecular Devices, Sunnyvale, CA, USA).

Test [2] has as its system mock-transfected HEK293T cells. The experiment in a line: Ca2+ imaging of mock-transfected HEK293T cells (control). It is filed as cell-based, human. To be noted: single concentration. On the procedure: Mock-transfected HEK293T cells, hTRPV1-expressing HEK293T cells, non-hTRPA1-expressing Flp-In 293 cells, and hTRPA1-expressing Flp-In 293 cells grown in 96-well black-wall plates were rinsed with assay buffer (130 mM NaCl, 10 mM glucose, 5 mM KCl, 2 […]2, 1.2 mM MgCl2, and 10 mM HEPES, pH 7.4) and loaded with 5 μM Fura-2 AM (Invitrogen) for 30 min at 27°C. The cells were washed with assay buffer and treated with ligands. […] The fluorescence intensities of Fura-2 excited at 340 and 380 nm were simultaneously measured at 510 nm using a computer-controlled filter changer (Lambda DG4; Sutter, San Rafael, CA, USA), an Andor Luca CCD camera (Andor Technology, Belfast, UK), and an inverted fluorescence microscope (IX-71; Olympus, Tokyo, Japan). Intracellular calcium images were recorded every 3-s for 60-s and analyzed using MetaFluor software (Molecular Devices, Sunnyvale, CA, USA).

Test [3] relates to amiloride-insensitive salt taste pathway. Also noted: method as in PMID 23221408. To be noted: WT and TRPV1 KO mice, electrophysiological studies; cited from earlier work.
For another test, the system named is non-transfected cells. The test is described as follows: Whole-cell patch clamp recording, non-transfected cells (control). It is filed as cell-based, human. Particulars: capsaicin 100 nM, AITC 100 µM, NGCC 10^3 µM. The procedure:
Mouse ASIC1a (mASIC1a) was a kind gift from John A. Wemmie (University of Iowa, IA, USA). For electrophysiological experiments, HEK293T cells were cultured in DMEM supplemented with 10% FBS and 0.2% penicillin/streptomycin and transiently transfected using Lipofectamine 2000 (Invitrogen) with various cDNAs. For TRPV1 channel expression, cells were transfected with hTRPV1, for ASIC1a homomeric channel expression, cells were transfected with mASIC1a. When needed, 0.1–0.2 µg of cDNA encoding tetrameric red fluorescence protein (DsRed) was co-transfected with the cDNA as a marker for successfully transfected cells. For non-transfected cells, cells were transfected with 0.1–0.2 µg of cDNA encoding DsRed alone. The next day, cells were plated onto poly-L-lysine-coated coverslip chips, and fluorescent cells were studied within 1–2 days.
The whole-cell configuration was used to voltage-clamp at room temperature (22–25°C). Electrodes pulled from glass micropipette capillaries (Sutter Instrument) had resistances of 2–2.5 MΩ, and series resistance errors were compensated >60%. Fast and slow capacitances were compensated before the application of test-pulse. Recordings were performed using aHEKAEPC-10 amplifier with pulse software (HEKA Elektronik). […] TRPV1 and TRPA1 currents were recorded by holding the cell at −80 mV. […] ASIC currents were recorded by holding the cell at −70 mV. […]
In general terms: The patch-clamp technique gives a direct electrical read-out from membranes.

For a further test, the target named is T1, hTRPA1 (Homo sapiens, UniProt O75762).
T1 construct: expressed in transfected cells
The experiment in a line: Measurement of Ca2+ influx (Fluo-4 AM, FlexStation III) in hTRPA1-expressing cells. It is filed as cell-based. To be noted: hTRPA1-expressing Flp-In 293 cells, Hill fit. The procedure: Flp-In 293 cell lines stably expressing hTRPA1constructed as previously reported was a gift from the professor Takumi Misaka at University of Tokyo. The hTRPA1-expressing cells were cultured in DMEM containing 10% FBS and 0.02% hygromycin B (Invitrogen). Flp-In 293 cell lines were maintained in DMEM containing 10% FBS. All cells were incubated at 37°C in a humidified atmosphere of 5% CO2.
The ligand-induced changes on cytosolic Ca^2+ level were monitored by a FlexStation III microplate reader (Molecular Devices). Fluo-4 AM (5 µM, Molecular Probes, Eugene, OR, USA) in assay buffer was loaded to the cells in 96-well black-wall plates for 30 min at 27°C. After dye treatment, each chemical was added to each well at 17 s and changes on intracellular Ca^2+ level were monitored by relative fluorescence units (ΔRFU, Ex = 485 nm; Em = 516 nm) for 120 s. […] The responses from at least three wells receiving the same stimulus were averaged. Plots of amplitude versus concentration were fitted using the Hill equation.

T1 sequence (O75762 whole entry): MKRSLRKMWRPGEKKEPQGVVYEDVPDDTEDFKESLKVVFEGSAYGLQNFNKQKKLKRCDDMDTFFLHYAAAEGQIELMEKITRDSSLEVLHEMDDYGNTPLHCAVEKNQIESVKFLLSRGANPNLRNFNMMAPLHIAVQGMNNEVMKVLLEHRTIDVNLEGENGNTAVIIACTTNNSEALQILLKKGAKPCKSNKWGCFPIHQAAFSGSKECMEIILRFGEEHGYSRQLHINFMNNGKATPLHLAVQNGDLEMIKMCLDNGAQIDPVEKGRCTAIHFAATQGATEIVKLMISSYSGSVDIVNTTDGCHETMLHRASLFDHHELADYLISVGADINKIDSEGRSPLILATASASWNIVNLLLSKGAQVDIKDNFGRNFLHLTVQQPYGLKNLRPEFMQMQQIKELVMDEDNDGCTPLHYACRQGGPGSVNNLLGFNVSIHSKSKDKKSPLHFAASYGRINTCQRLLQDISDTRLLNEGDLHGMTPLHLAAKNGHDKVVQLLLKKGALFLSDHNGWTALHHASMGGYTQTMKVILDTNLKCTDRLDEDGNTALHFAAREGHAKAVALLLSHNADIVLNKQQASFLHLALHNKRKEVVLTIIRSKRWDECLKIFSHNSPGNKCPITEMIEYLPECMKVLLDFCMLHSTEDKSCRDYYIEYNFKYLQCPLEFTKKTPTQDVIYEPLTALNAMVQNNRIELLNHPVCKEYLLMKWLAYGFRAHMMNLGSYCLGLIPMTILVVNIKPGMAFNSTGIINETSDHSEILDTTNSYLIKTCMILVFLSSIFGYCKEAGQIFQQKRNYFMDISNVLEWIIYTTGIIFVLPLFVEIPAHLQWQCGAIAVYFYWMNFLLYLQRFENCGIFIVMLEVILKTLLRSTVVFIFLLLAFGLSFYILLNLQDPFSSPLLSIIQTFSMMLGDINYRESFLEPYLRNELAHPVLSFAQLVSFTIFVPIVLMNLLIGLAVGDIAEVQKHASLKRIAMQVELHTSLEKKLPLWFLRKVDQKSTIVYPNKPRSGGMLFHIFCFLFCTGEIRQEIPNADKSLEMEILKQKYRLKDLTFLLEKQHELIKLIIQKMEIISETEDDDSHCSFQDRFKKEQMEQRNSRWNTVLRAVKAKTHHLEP

For the compound `CC(C)=CCC/C(C)=C/CNC(=O)C1CC1` [NGCC, N-geranylcyclopropylcarboxamide], the “NGCC activity in non-hTRPA1-expressing Flp-In 293 cells” value in test [1] is “reacts specifically with hTRPA1”. Also, the “change in fluorescence in mock-transfected cells” value in test [2] was “no changes in fluorescence”. Also, the “effect on the amiloride-insensitive salt taste pathway” value in test [3] was “produced biphasic effects”. For the same compound, the “current in non-transfected cells” value in the test with non-transfected cells is on record as “no current”. This compound also showed a negative-log EC50 (pEC50) on hTRPA1 of 4.08.

The term pEC50 denotes the EC50 on a negative log10 scale, so that one unit is a factor of ten. Read a low pEC50 as a large EC50.
